pIC50: −log10 of the molar value.
Tests used:
Assay type in all cases: cell-based
human PGD receptor = biological target: T1, human PGD receptor (Homo sapiens, UniProt Q13258); experiment: cAMP antagonism test on the human prostaglandin D receptor (HTRF cAMP detection); conditions: selectivity towards hDP, IC50 measured by cAMP antagonism test
T1 sequence (Q13258 1-359): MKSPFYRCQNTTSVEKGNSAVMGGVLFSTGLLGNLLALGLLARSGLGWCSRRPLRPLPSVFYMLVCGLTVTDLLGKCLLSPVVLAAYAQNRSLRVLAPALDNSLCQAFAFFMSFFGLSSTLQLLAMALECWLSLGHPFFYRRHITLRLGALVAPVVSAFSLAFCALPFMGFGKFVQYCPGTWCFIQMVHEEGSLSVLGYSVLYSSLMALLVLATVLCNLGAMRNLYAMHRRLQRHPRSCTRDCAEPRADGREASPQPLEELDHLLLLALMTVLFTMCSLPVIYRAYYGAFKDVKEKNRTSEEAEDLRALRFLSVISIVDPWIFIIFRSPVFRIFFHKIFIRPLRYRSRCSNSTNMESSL
In short: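 HTRF competition read-out (665/620 nm ratio ×10000), where higher FRET means less cAMP, i.e. antagonism. Compounds (0.8 nM–16.5 μM) were preincubated 20 min at RT with cells and cAMP-d2, PGD2 (3× solution, 6 nM) in IBMX-containing PBS added for 30 min at RT, then cells lysed 20 min.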

[1] = biological target: EP4 subtype of the human PGE2 receptor (Homo sapiens, UniProt P35408); experiment: cAMP antagonism test on the human EP4 receptor (HTRF cAMP detection); conditions: selectivity towards hEP4, IC50 measured by cAMP antagonism test
In short: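 Competitive HTRF cAMP read-out (cAMP-d2 vs Eu-cryptate anti-cAMP antibody, 665/620 nm ratio) on lysed human EP4 cells. Compound (0.8 nM–16.5 μM) applied 20 min at RT before 60 min PGE2 challenge (3× solution 0.3 nM, IBMX present); 20 min lysis precedes reading.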

[2] = biological target: EP2 subtype of the human PGE2 receptor (Homo sapiens, UniProt P43116); experiment: cAMP antagonism test on the human EP2 receptor (HTRF cAMP detection); conditions: hEP2 receptor, read-out: Antagonism hEP2 IC50
In short: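 Read-out is a competitive HTRF for cAMP: lysate cAMP displaces cAMP-d2 from Eu cryptate-labelled antibody, and antagonism raises the 665/620 nm ratio. Compound (0.8 nM–16.5 μM) added to EP2 cells 20 min at RT before 60 min PGE2 challenge (3× stock 1.5 nM) with IBMX, followed by 20 min lysis.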

Sequence of EP2 subtype of the human PGE2 receptor (P43116 whole entry): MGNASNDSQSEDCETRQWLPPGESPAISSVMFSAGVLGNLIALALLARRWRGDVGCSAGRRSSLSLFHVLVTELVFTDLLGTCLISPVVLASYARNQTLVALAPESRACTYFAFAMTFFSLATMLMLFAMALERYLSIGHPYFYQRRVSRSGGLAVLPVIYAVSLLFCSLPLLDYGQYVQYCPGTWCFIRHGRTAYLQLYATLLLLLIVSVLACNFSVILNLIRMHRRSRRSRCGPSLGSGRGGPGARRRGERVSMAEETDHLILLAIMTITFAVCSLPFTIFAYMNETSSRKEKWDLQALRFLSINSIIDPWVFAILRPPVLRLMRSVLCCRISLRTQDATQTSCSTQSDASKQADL
Sequence of EP4 subtype of the human PGE2 receptor (P35408 whole entry): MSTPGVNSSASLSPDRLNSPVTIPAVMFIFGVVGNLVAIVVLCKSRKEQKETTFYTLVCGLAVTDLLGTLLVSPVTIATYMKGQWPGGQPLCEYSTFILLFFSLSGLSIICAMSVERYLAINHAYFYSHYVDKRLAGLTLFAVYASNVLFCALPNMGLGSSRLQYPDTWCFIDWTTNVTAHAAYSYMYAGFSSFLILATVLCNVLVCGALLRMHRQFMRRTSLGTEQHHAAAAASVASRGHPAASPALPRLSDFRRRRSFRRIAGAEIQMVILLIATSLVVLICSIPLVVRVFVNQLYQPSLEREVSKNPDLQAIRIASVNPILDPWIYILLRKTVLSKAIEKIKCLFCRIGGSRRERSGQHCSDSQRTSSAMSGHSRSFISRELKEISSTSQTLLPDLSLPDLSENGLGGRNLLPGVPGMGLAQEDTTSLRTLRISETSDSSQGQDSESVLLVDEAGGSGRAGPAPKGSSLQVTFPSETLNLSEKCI

Structure (SMILES) | Selectivity hEP2/hDP (human PGD receptor) | Selectivity hEP2/hEP4 [1] | pIC50 [2]
COCCNC(=O)c1ccc2nn(C[C@H]3CCN(C(=O)c4ccc(-c5ccc(F)cc5)cc4)C3)cc2c1C [Example 223, 2-({(S)-1-[(4′-fluorobiphenyl-4-yl)carbonyl]pyrrolidin-3-yl}methyl)-N-(2-methoxyethyl)-4-methyl-2H-indazol-5-carboxamide] | xxx (xxx > 100) | xxx (xxx > 100) | 7.70
Cc1c(C(=O)NCCC#N)ccc2nn(CC3CCN(C(=O)c4ccc(Oc5ccc(C(F)(F)F)cc5)cc4)CC3)cc12 [Example 246, N-(2-cyanoethyl)-4-methyl-2-[(1-{4-[4-(trifluoromethyl)phenoxy]benzoyl}piperidin-4-yl)methyl]-2H-indazol-5-carboxamide] | xxx (xxx > 100) | xxx (xxx > 100) | 8.03
Cc1c(C(=O)NCC(F)(F)F)ccc2nn(CC3CN(C(=O)c4cc5cc(F)ccc5n4C)C3)cc12 [Example 167, 2-({1-[(5-fluoro-1-methyl-1H-indol-2-yl)carbonyl]azetidin-3-yl}methyl)-4-methyl-N-(2,2,2-trifluoroethyl)-2H-indazol-5-carboxamide] | xxx (xxx > 100) | xxx (xxx > 100) | 7.87
COCCNC(=O)c1ccc2nn(CC3CCN(C(=O)c4ccc5cc(OC)ccc5c4)CC3)cc2c1C [Example 336, N-(2-methoxyethyl)-2-{[1-(6-methoxy-2-naphthoyl)piperidin-4-yl]methyl}-4-methyl-2H-indazol-5-carboxamide] | xxx (xxx > 100) | xxx (xxx > 100) | 8.25
Cc1c(C(=O)NCC2COCCO2)ccc2nn(CC3CCN(C(=O)c4ccc(Oc5ccc(C(F)(F)F)cc5)cc4)CC3)cc12 (single isomer, unassigned) [Example 418, (R or S)—N-(1,4-dioxan-2-ylmethyl)-4-methyl-2-[(1-{4-[4-(trifluoromethyl)-phenoxy]benzoyl}piperidin-4-yl)methyl]-2H-indazol-5-carboxamide] | xxx (xxx > 100) | xxx (xxx > 100) | 7.80
COCCNC(=O)c1ccc2nn(CC3CCN(C(=O)c4ccc(Oc5cccc(C(F)(F)F)n5)cc4)CC3)cc2c1C [Example 350, N-(2-methoxyethyl)-4-methyl-2-{[1-(4-{[6-(trifluoromethyl)pyridin-2-yl]oxy}-benzoyl)piperidin-4-yl]methyl}-2H-indazol-5-carboxamide] | xxx (xxx > 100) | xxx (xxx > 100) | 8.08
Cc1c(C(=O)NCC(F)(F)F)ccc2nn(CC3CCN(C(=O)c4nc5ccccc5s4)CC3)cc12 [Example 302, 2-{[1-(benzothiazol-2-ylcarbonyl)piperidin-4-yl]methyl}-4-methyl-N-(2,2,2-trifluoroethyl)-2H-indazol-5-carboxamide] | xxx (xxx > 100) | xxx (xxx > 100) | 6.88
COCCNC(=O)c1ccc2nn(CC3CCN(C(=O)c4ccc(Oc5ccc(C(C)(C)C)cc5)cc4)CC3)cc2c1C [Example 16, 2-({1-[4-(4-tert-butylphenoxy)-benzoyl]piperidin-4-yl}methyl)-N-(2-methoxyethyl)-4-methyl-2H-indazol-5-carboxamide] | xxx (xxx > 100) | xxx (xxx > 100) | 8.23
COCCNC(=O)c1cc2cn(CC3CN(C(=O)c4ccc(Cl)c(C(F)(F)F)c4)C3)nc2cc1C [Example 185, 2-({1-[4-chloro-3-(trifluoromethyl)benzoyl]azetidin-3-yl}methyl)-N-(2-methoxy-ethyl)-6-methyl-2H-indazol-5-carboxamide] | xxx (xxx > 100) | xxx (xxx > 100) | 7.61
[2H]C([2H])([2H])OC([2H])([2H])C([2H])([2H])NC(=O)c1ccc2nn(CC3CCN(C(=O)c4ccc(Cl)cc4)CC3)cc2c1C [Example 115, 2-{[1-(4-chlorobenzoyl)piperidin-4-yl]methyl}-N-(2-[^2H3]methoxy[^2H4]ethyl)-4-methyl-2H-indazol-5-carboxamide] | xxx (xxx > 100) | xxx (xxx > 100) | 8.04
Cc1c(C(=O)NCC(F)(F)F)ccc2nn(CC3CCN(C(=O)c4ccc(-c5cnc(C(F)(F)F)nc5)cc4)CC3)cc12 [Example 328, 4-methyl-N-(2,2,2-trifluoroethyl)-2-[(1-{4-[2-(trifluoromethyl)pyrimidin-5-yl]-benzoyl}piperidin-4-yl)methyl]-2H-indazol-5-carboxamide] | xx (xx: 10-100) | xx (xx: 10-100) | 6.59
Cc1cc2nn(CC3CN(C(=O)c4ccc(OC(F)(F)F)cc4)C3)cc2cc1C(=O)NCCOC(F)(F)F [Example 196, 6-methyl-2-({1-[4-(trifluoromethoxy)benzoyl]azetidin-3-yl}methyl)-N-[2-(trifluoromethoxy)ethyl]-2H-indazol-5-carboxamide] | xxx (xxx > 100) | xxx (xxx > 100) | 7.29
Cc1c(C(=O)NCC2CCCCO2)ccc2nn(CC3CCN(C(=O)c4ccc(Oc5ccc(C(F)(F)F)cc5)cc4)CC3)cc12 (single isomer, unassigned) [Example 416, (R or S)-4-methyl-N-(3,4,5,6-tetrahydro-2H-pyran-2-ylmethyl)-2-[(1-{4-[4-(trifluoromethyl)phenoxy]benzoyl}piperidin-4-yl)methyl]-2H-indazol-5-carboxamide] | xxx (xxx > 100) | xxx (xxx > 100) | 7.97
COCCNC(=O)c1ccc2nn(CC3CCN(C(=O)c4ccc(-c5ccc(C(C)(C)C#N)cc5)cc4)CC3)cc2c1C [Example 372, 2-[(1-{[4′-(1-cyano-1-methylethyl)biphenyl-4-yl]carbonyl}piperidin-4-yl)-methyl]-N-(2-methoxyethyl)-4-methyl-2H-indazol-5-carboxamide] | xxx (xxx > 100) | xxx (xxx > 100) | 8.14

The remaining lines, values ahead:

Selectivity hEP2/hDP (human PGD receptor) | Selectivity hEP2/hEP4 [1] | pIC50 [2] | Structure (SMILES)
xxx (xxx > 100) | xxx (xxx > 100) | 7.25 | Cc1c(C(=O)NCC(F)(F)F)ccc2nn(CC3CCN(C(=O)c4ccc(Oc5ccc(Cl)cc5)cc4)CC3)cc12 [Example 284, 2-({1-[4-(4-chlorophenoxy)benzoyl]piperidin-4-yl}methyl)-4-methyl-N-(2,2,2-trifluoroethyl)-2H-indazol-5-carboxamide]
xxx (xxx > 100) | xxx (xxx > 100) | 6.89 | COCCNC(=O)c1ccc2nn(C[C@@H]3CCN(C(=O)c4ccc(OC(F)(F)F)cc4)C3)cc2c1C [Example 218, N-(2-methoxyethyl)-4-methyl-2-({(R)-1-[4-(trifluoromethoxy)benzoyl]-pyrrolidin-3-yl}methyl)-2H-indazol-5-carboxamide]
xxx (xxx > 100) | xxx (xxx > 100) | 7.61 | Cc1c(C(=O)NCC(F)(F)F)ccc2nn(CC3CCN(C(=O)c4ccc(Oc5ccc(C(F)(F)F)cn5)cc4)CC3)cc12 [Example 301, 4-methyl-N-(2,2,2-trifluoroethyl)-2-{[1-(4-{[5-(trifluoromethyl)pyridin-2-yl]-oxy}benzoyl)piperidin-4-yl]methyl}-2H-indazol-5-carboxamide]
xxx (xxx > 100) | xxx (xxx > 100) | 7.98 | Cc1c(C(=O)NCCOC(C)C)ccc2nn(CC3CCN(C(=O)c4ccc(C(F)(F)F)cc4)CC3)cc12 [Example 99, N-(2-isopropoxy-ethyl)-4-methyl-2-({1-[4-(trifluoro-methyl)benzoyl]-piperidin-4-yl}-methyl)-2H-indazol-5-carboxamide]
xxx (xxx > 100) | xxx (xxx > 100) | 7.74 | Cc1c(C(=O)NCCS(C)(=O)=O)ccc2nn(CC3CCN(C(=O)c4ccc(Oc5ccc(C(F)(F)F)cn5)cc4)CC3)cc12 [Example 396, N-(2-mesylethyl)-4-methyl-2-{[1-(4-{[5-(trifluoromethyl)pyridin-2-yl]oxy}-benzoyl)piperidin-4-yl]methyl}-2H-indazol-5-carboxamide]
xxx (xxx > 100) | xxx (xxx > 100) | 7.78 | O=C(NCCOCC1CC1)c1ccc2nn(CC3CCN(C(=O)c4ccc(Cl)cc4)CC3)cc2c1OCC(F)(F)F [Example 235, 2-{[1-(4-chlorobenzoyl)piperidin-4-yl]methyl}-N-[2-(cyclopropylmethoxy)-ethyl]-4-(2,2,2-trifluoroethoxy)-2H-indazol-5-carboxamide]

From patent publication US9062041B2 (Bayer Intellectual Property GmbH, priority 2011, dated 2015)
